Experimental data published in US10968172B2, “USP30 inhibitors” (Mitobridge, Inc., priority 2017, dated 2021).

Target: USP30 (Homo sapiens (Human), UniProt Q70CQ3)
Experiment: In vitro biochemical assay for USP30 enzyme (Ubiquitin-Rhodamine110 cleavage, fluorescence)
Details: 20 nM USP30, 15 min pre-incubation, 100 nM Ub rhodamine substrate, 2 hrs at room temperature
Procedure: In vitro biochemical assay for USP30 enzyme
The in vitro assay for USP30 evaluates the ability of a test compound to inhibit the activity of the enzyme to cleave ubiquitin from a substrate. Ubiquitin-rhodamine 110 is a quenched, fluorescent substrate for USP30. Cleavage of the amide bond between the C-terminal glycine of ubiquitin and rhodamine results in an increase in rhodamine fluorescence at 535 nm (Exc. 485 nm).
Incubation of the substrate in the presence or absence of USP30 was compared to confirm the deubiquitylating activity of USP30. The USP30 enzyme assay was performed by pre-incubating 20 nM of USP30 with varying concentration of a test compound in the assay buffer [PBS (pH 7.4), 1 mM DTT, 0.01% Tween 20, 0.01% BSA, DMSO final concentration is 1%] for 15 mins at room temperature, following which 100 nM of substrate Ub rhodamine was added and incubated at room temperature for 2 hrs and the plate was read for fluorescence intensity at Ex. 485 nm/535 nm in VICTOR X5 plate reader. The percent inhibition of activity of the enzyme is calculated by comparing counts in the presence and absence of compounds.
Test compounds were screened at various concentrations (10-12 tested concentrations) and dose response curves were generated was generated using GraphPad Prism software Version 7 (San Diego, Calif., USA) with non-linear regression curve fit for sigmoidal dose response (variable slope).

USP30, sequence (Q70CQ3 whole entry): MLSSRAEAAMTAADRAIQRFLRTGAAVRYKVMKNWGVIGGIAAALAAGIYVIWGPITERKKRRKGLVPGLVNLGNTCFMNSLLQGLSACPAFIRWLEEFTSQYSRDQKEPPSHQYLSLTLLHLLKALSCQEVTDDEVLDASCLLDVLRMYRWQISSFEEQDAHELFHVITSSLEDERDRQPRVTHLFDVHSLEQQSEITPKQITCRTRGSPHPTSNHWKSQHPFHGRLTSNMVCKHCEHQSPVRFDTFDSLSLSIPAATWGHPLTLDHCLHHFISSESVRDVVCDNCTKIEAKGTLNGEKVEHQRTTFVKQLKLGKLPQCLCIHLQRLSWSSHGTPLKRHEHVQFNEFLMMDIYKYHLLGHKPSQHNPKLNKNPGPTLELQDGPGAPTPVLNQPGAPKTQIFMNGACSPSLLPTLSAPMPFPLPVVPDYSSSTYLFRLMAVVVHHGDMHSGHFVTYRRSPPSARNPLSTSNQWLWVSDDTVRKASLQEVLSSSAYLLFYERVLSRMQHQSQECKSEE

## CC(C)(C)NS(=O)(=O)c1cccc2c(NC(=O)[C@H](Cc3ccc(F)cc3)NC(=O)c3ccccc3)cccc12 [Compound 7e, (S)-N-(1-((5-(N-(tert-butyl)sulfamoyl)naphthalen-1-yl)amino)-3-(4-fluorophenyl)-1-oxopropan-2-yl)benzamide]
  IC50: 153 nM

## COc1ccc(C[C@H](NC(=O)c2ccccc2)C(=O)Nc2cccc3c(S(=O)(=O)NC(C)(C)C)cccc23)cc1 [Compound 7f, (S)-N-(1-((5-(N-(tert-butyl)sulfamoyl)naphthalen-1-yl)amino)-3-(4-methoxyphenyl)-1-oxopropan-2-yl)benzamide]
  IC50: 89 nM

## CC(C)(C)NS(=O)(=O)c1cccc2c(NC(=O)[C@H](CC3CC3)NC(=O)c3ccccc3)cccc12 [Compound 7h, (S)-N-(1-((5-(N-(tert-butyl)sulfamoyl)naphthalen-1-yl)amino)-3-cyclopropyl-1-oxopropan-2-yl)benzamide]
  IC50: 2200 nM

## CC(C)(C)NS(=O)(=O)c1cccc2c(NC(=O)[C@H](Cc3cnc[nH]3)NC(=O)c3ccccc3)cccc12 [Compound 7i, (S)-N-(1-((5-(N-(tert-butyl)sulfamoyl)naphthalen-1-yl)amino)-3-(1H-imidazol-5-yl)-1-oxopropan-2-yl)benzamide]
  IC50: > 10000 nM

## CC(C)(C)NS(=O)(=O)c1cccc2c(NC(=O)[C@H](Cc3ccc(C#N)cc3)NC(=O)c3ccccc3)cccc12 [Compound 7j, (S)-N-(1-((5-(N-(tert-butyl)sulfamoyl)naphthalen-1-yl)amino)-3-(4-cyanophenyl)-1-oxopropan-2-yl)benzamide]
  IC50: 273 nM

## CC(C)(C)NS(=O)(=O)c1cccc2c(NC(=O)[C@H](Cc3cccs3)NC(=O)c3ccccc3)cccc12 [Compound 7k, (S)-N-(1-((5-(N-(tert-butyl)sulfamoyl)naphthalen-1-yl)amino)-1-oxo-3-(thiophen-2-yl)propan-2-yl)benzamide]
  IC50: 230 nM

## Cc1ccccc1C[C@H](NC(=O)c1ccccc1)C(=O)Nc1cccc2c(S(=O)(=O)NC(C)(C)C)cccc12 [Compound 7l, (S)-N-(1-((5-(N-(tert-butyl)sulfamoyl)naphthalen-1-yl)amino)-1-oxo-3-(o-tolyl)propan-2-yl)benzamide]
  IC50: > 10000 nM

## Cc1ccc(C[C@H](NC(=O)c2ccccc2)C(=O)Nc2cccc3c(S(=O)(=O)NC(C)(C)C)cccc23)cc1 [Compound 7m, (S)-N-(1-((5-(N-(tert-butyl)sulfamoyl)naphthalen-1-yl)amino)-1-oxo-3-(p-tolyl)propan-2-yl)benzamide]
  IC50: > 10000 nM

## CC(C)(C)NS(=O)(=O)c1cccc2c(NC(=O)[C@H](Cc3ccc(Cl)cc3)NC(=O)c3ccccc3)cccc12 [Compound 7n, (S)-N-(1-((5-(N-(tert-butyl)sulfamoyl)naphthalen-1-yl)amino)-3-(4-chlorophenyl)-1-oxopropan-2-yl)benzamide]
  IC50: 446 nM

## CC(C)(C)NS(=O)(=O)c1ccc(NC(=O)[C@H](Cc2ccccc2)NC(=O)c2ccccc2)cc1 [Compound 10a, (S)-N-(1-((4-(N-(tert-butyl)sulfamoyl)phenyl)amino)-1-oxo-3-phenylpropan-2-yl)benzamide]
  IC50: > 10000 nM

## CC(C)(C)NS(=O)(=O)c1ccc(NC(=O)[C@H](Cc2ccccc2)NC(=O)C2CCCCC2)cc1 [Compound 10b, (S)—N-(1-((4-(N-(tert-butyl)sulfamoyl)phenyl)amino)-1-oxo-3-phenylpropan-2-yl)cyclohexanecarboxamide]
  IC50: 59 nM

## CC(C)(C)NS(=O)(=O)c1ccc(NC(=O)[C@H](Cc2ccccc2)NC(=O)C2CCCC2)cc1 [Compound 10c, (S)-N-(1-((4-(N-(tert-butyl)sulfamoyl)phenyl)amino)-1-oxo-3-phenylpropan-2-yl)cyclopentanecarboxamide]
  IC50: 71 nM

## CC(C)(C)NS(=O)(=O)c1ccc(NC(=O)[C@@H](Cc2ccccc2)NC(=O)C2CCCCC2)cc1 [Compound 10d, (R)-N-(1-((4-(N-(tert-butyl)sulfamoyl)phenyl)amino)-1-oxo-3-phenylpropan-2-yl)cyclohexanecarboxamide]
  IC50: 28 nM

## CC(C)(C)NS(=O)(=O)c1ccc(NC(=O)[C@H](Cc2ccccc2)NC(=O)c2ccc(F)cc2)cc1 [Compound 10e]
  IC50: 17 nM

## CC(C)(C)NS(=O)(=O)c1ccc(NC(=O)[C@H](Cc2ccccc2)NC(=O)c2ccc(C(=O)O)cc2)cc1 [Compound 10f, (S)-4-((1-((4-(N-(tert-butyl)sulfamoyl)phenyl)amino)-1-oxo-3-phenylpropan-2-yl)carbamoyl)benzoic acid]
  IC50: > 10000 nM

## COC(=O)c1ccc(C(=O)N[C@@H](Cc2ccccc2)C(=O)Nc2ccc(S(=O)(=O)NC(C)(C)C)cc2)cc1 [Compound 10g, methyl (S)-4-((1-((4-(N-(tert-butyl)sulfamoyl)phenyl)amino)-1-oxo-3-phenylpropan-2-yl)carbamoyl)benzoate]
  IC50: > 10000 nM

## CC(C)(C)NS(=O)(=O)c1ccc(NC(=O)[C@H](Cc2ccccc2)NC(=O)c2ccccn2)cc1 [Compound 10h, (S)-N-(1-((4-(N-(tert-butyl)sulfamoyl)phenyl)amino)-1-oxo-3-phenylpropan-2-yl)picolinamide]
  IC50: 250 nM

## CC(C)(C)NS(=O)(=O)c1ccc(NC(=O)[C@H](Cc2ccccc2)NC(=O)[C@@H]2CCCN2)cc1 [Compound 10i, (S)-N-((S)-1-((4-(N-(tert-butyl)sulfamoyl)phenyl)amino)-1-oxo-3-phenylpropan-2-yl)pyrrolidine-2-carboxamide]
  IC50: > 10000 nM

## CC(C)(C)NS(=O)(=O)c1ccc(NC(=O)[C@H](Cc2ccccc2)NC(=O)c2cccnn2)cc1 [Compound 10j, (S)-N-(1-((4-(N-(tert-butyl)sulfamoyl)phenyl)amino)-1-oxo-3-phenylpropan-2-yl)pyridazine-3-carboxamide]
  IC50: 148 nM

## CC(C)(C)NS(=O)(=O)c1ccc(NC(=O)[C@H](CC2CCCCC2)NC(=O)c2ccccc2)cc1 [Compound 14a, (S)-N-(1-((4-(N-(tert-butyl)sulfamoyl)phenyl)amino)-3-cyclohexyl-1-oxopropan-2-yl)benzamide]
  IC50: 225 nM

## CC(C)(C)NS(=O)(=O)c1ccc(NC(=O)[C@H](CC2CCCCC2)NC(=O)C2CCCCC2)cc1 [Compound 14b, (S)-N-(1-((4-(N-(tert-butyl)sulfamoyl)phenyl)amino)-3-cyclohexyl-1-oxopropan-2-yl)cyclohexanecarboxamide]
  IC50: 83 nM

## CC(C)(C)NS(=O)(=O)c1ccc(NC(=O)[C@H](CC2CCCCC2)NC(=O)c2ccc(F)cc2)cc1 [Compound 14c, (S)-N-(1-((4-(N-(tert-butyl)sulfamoyl)phenyl)amino)-3-cyclohexyl-1-oxopropan-2-yl)-4-fluorobenzamide]
  IC50: 23 nM

## CC(C)(C)NS(=O)(=O)c1ccc(NC(=O)[C@H](CC2CCCCC2)NC(=O)c2ccc(C(F)(F)F)cc2)cc1 [Compound 14d, (S)-N-(1-((4-(N-(tert-butyl)sulfamoyl)phenyl)amino)-3-cyclohexyl-1-oxopropan-2-yl)-4-(trifluoromethyl)benzamide]
  IC50: > 10000 nM

## CC(C)(C)NS(=O)(=O)c1ccc(NC(=O)[C@H](CC2CCCCC2)NC(=O)C2CCCC2)cc1 [Compound 14e, (S)-N-(1-((4-(N-(tert-butyl)sulfamoyl)phenyl)amino)-3-cyclohexyl-1-oxopropan-2-yl)cyclopentanecarboxamide]
  IC50: 120 nM

## CC(C)(C)NS(=O)(=O)c1ccc(NC(=O)[C@H](CC2CCCCC2)NC(=O)c2ccccc2F)cc1 [Compound 14f, (S)-N-(1-((4-(N-(tert-butyl)sulfamoyl)phenyl)amino)-3-cyclohexyl-1-oxopropan-2-yl)-2-fluorobenzamide]
  IC50: 461 nM

## CC(C)(C)NS(=O)(=O)c1ccc(NC(=O)[C@H](CC2CCCCC2)NC(=O)c2cccc(F)c2)cc1 [Compound 14g, (S)-N-(1-((4-(N-(tert-butyl)sulfamoyl)phenyl)amino)-3-cyclohexyl-1-oxopropan-2-yl)-3-fluorobenzamide]
  IC50: 57 nM

## CC(C)(C)NS(=O)(=O)c1ccc(NC(=O)[C@H](CC2CCCCC2)NC(=O)c2ccc(F)c(F)c2)cc1 [Compound 14h, (S)-N-(1-((4-(N-(tert-butyl)sulfamoyl)phenyl)amino)-3-cyclohexyl-1-oxopropan-2-yl)-3,4-difluorobenzamide]
  IC50: 31 nM

## CC(C)(C)NS(=O)(=O)c1ccc(NC(=O)[C@H](CC2CCCCC2)NC(=O)c2cccc(C#N)c2)cc1 [Compound 14i, (S)-N-(1-((4-(N-(tert-butyl)sulfamoyl)phenyl)amino)-3-cyclohexyl-1-oxopropan-2-yl)-3-cyanobenzamide]
  IC50: > 10000 nM

## CC(C)(C)NS(=O)(=O)c1ccc(NC(=O)[C@H](CC2CCCCC2)NC(=O)c2ccccn2)cc1 [Compound 14j, (S)-N-(1-((4-(N-(tert-butyl)sulfamoyl)phenyl)amino)-3-cyclohexyl-1-oxopropan-2-yl)picolinamide]
  IC50: 123 nM

## CC(C)(C)NS(=O)(=O)c1ccc(NC(=O)[C@H](Cc2cccs2)NC(=O)C2CCCCC2)cc1 [Compound 19a, (S)-N-(1-((4-(N-(tert-butyl)sulfamoyl)phenyl)amino)-1-oxo-3-(thiophen-2-yl)propan-2-yl)cyclohexanecarboxamide]
  IC50: 28 nM

## COc1ccc(C[C@H](NC(=O)c2cccnc2)C(=O)Nc2ccc(S(=O)(=O)NC(C)(C)C)cc2)cc1 [Compound 19aa, (S)-N-(1-((4-(N-(tert-butyl)sulfamoyl)phenyl)amino)-3-(4-methoxyphenyl)-1-oxopropan-2-yl)nicotinamide]
  IC50: 208 nM
